For one data set, the system named is Cercospora arachidicola. Nature of the data set: Action against Cercospora arachidicola on peanut plants (curative action). It is filed as in vivo. The note with it: Mycosphaerella arachidis, 288 h, 160 ppm spray, peanut cv. Tamnut, evaluated 12 days after treatment, read-out: action (leaf area infected with Cercospora arachidicola as a percentage compared with the infected control). The protocol: Action Against Cercospora arachidicola on Peanut Plants (Curative Action)
Two peanut plants cv. “Tamnut” in the 4-leaf stage are sprayed with a conidia suspension of Cercospora arachidicola (approx. 200,000 conidia/ml) and subsequently incubated at 25-26° C. and under dew-point conditions. After two days, the plants are sprayed thoroughly from all sides with a spray mixture prepared with a wettable powder of the active substance (with 160 ppm of active ingredient). The treated plants are subsequently incubated in a controlled-environment cabinet under the following conditions: 25-27° C. and 80% atmospheric humidity during the day, 20° C. and dew-point conditions during the night; the photoperiod in each case is 16 hours. 12 days after the treatment, the test is evaluated by determining the leaf area infected with Cercospora arachidicola as a percentage compared with the infected control.

In another data set the test system is Plasmopara viticola. As to the kind of experiment: Plasmopara viticola (protective action) on grapevine seedlings. It is filed as in vivo. The note with it: 144 h, 160 ppm spray, grapevine cv. Riesling x Sylvaner, day 6 after infection, read-out: action (leaf area infected with Plasmopara viticola as a percentage compared with the infected, untreated control). The protocol:
Plasmopara viticola (Protective Action)
2 grapevine seedlings cv. Riesling×Sylvaner, each in the 4-5 leaf stage, are sprayed thoroughly from all sides with a spray mixture prepared with a wettable powder of the active substance (with 160 ppm of active ingredient) and subsequently cultured further in a controlled-environment cabinet at 17° C., 70-80% relative atmospheric humidity and with a photoperiod of 16 hours. After 6 days, the test plants are infected by spraying the undersides of the leaves with zoosporangia of Plasmopara viticola, suspended in distilled water (approx. 300,000 sporangia/ml). The grapevine plants are then incubated as follows: 1 day at 22° C. and under dew-point conditions in the dark and subsequently 4 days in the greenhouse. To induce fructification of Plasmopara viticola, the grapevines are transferred to a controlled-environment cabinet with dew-point conditions at 22° C. on day 5 after the infection.
The tests are carried out in each case on day 6 after the infection by determining the leaf area infected with Plasmopara viticola as a percentage compared with the infected, untreated control.

The subject of another data set is Alternaria brassicae. As to the kind of experiment: Alternaria brassicae (protective action) on cabbage seedlings. It is filed as in vivo. The note with it: 50 ppm spray, cabbage cv. Vorbote, evaluated 2-5 days after infection, read-out: action (leaf area infected with Alternaria brassicae as a percentage compared with the infected, untreated control). The protocol: Alternaria brassicae (Protective Action)
4 cabbage seedlings, cv. “Vorbote”, in the 6-leaf stage, distributed to 2 pots, are sprayed thoroughly with a spray mixture prepared with a wettable powder of the active substance (with 50 ppm of active ingredient) and subsequently cultured further in a controlled-environment cabinet at 19° C. and with 16 hours illumination per day. Two days after the treatment, the plants are infected by spraying with an aqueous conidia suspension (approx. 30,000 conidia/ml). The cabbage plants are then incubated at 24-26° C., under dew-point conditions and with a photoperiod of 16 hours. The test is evaluated 2-5 days after the infection by determining the leaf area infected with Alternaria brassicae as a percentage compared with the infected, untreated control.

The test system of the next data set is Venturia inaequalis. As to the kind of experiment: Venturia inaequalis (curative action) on apple seedlings. Format: in vivo. As to conditions: 50 ppm spray, apple cv. Golden Delicious, evaluated 9-10 days after treatment, read-out: action (leaf area covered in Venturia inaequalis as a percentage compared with the infected control). The protocol: Venturia inaequalis (Curative Action)
Two apple seedlings cv. “Golden Delicious” are sprayed with a conidia suspension of Venturia inaequalis and subsequently incubated at 18° C. and under dew-point conditions. After 24 hours, the plants are sprayed thoroughly from all sides with a spray mixture prepared with a wettable powder of the active substance (with 50 ppm of active ingredient). The treated apple seedlings are subsequently cultured further in the greenhouse. 9-10 days after the treatment, the test is evaluated by determining the leaf area covered in Venturia inaequalis as a percentage compared with the infected control.

A value given as a limit tells only on which side of the number the result lay.

For the compound `CO/N=C(\C(=O)OC)c1ccccc1CON=C(C)c1cc2ccccc2o1` [Compound 32], the melting point (in general, the temperature, or range, at which the solid turns liquid) was in the range of 110 to 112 °C. The pest or weed control at 160 ppm with Cercospora arachidicola was greater than 75%. The pest or weed control at 160 ppm with Plasmopara viticola is greater than 75%. Moreover, the pest or weed control at 50 ppm in the data set on Alternaria brassicae was greater than 75%. In addition, the pest or weed control at 50 ppm in the data set on Venturia inaequalis was greater than 75%.
